Measured values reported in patent publication EP0025288A1, “Derivatives of monic acid, processes for their preparation, compositions containing them and their preparation” (priority 1979, dated 1981).
In brackets after ≈: the same amount, converted by molar mass.

Legend:
M. bovis NCTC 10131 = assay: microbe, parasite or virus in culture; assay type: cell-based; details: NCTC10131, 144 h, read-out: in vitro MIC
M. suipneumoniae Str. 11 = assay: MIC, anti-mycoplasmal, Friis broth solidified with 0.9% agarose; assay type: cell-based; details: Mesomycoplasma hyopneumoniae, 144 h, inoculum 10^3 to 10^5 C.F.U., 6 days incubation at 37°C, read-out: in vitro MIC
M. suipneumoniae HK(2) = assay: as above; assay type: cell-based; details: Mesomycoplasma hyopneumoniae, 144 h, inoculum 10^3 to 10^5 C.F.U., 6 days incubation at 37°C, read-out: in vitro MIC
[1] = test system: Erysipelothrix rhusiopathiae NCTC 8163; assay: MIC, veterinary bacteria; assay type: cell-based; details: NCTC8163, veterinary bacteria (Table 2), read-out: MIC
Strep dysgalaciae SPD1 = assay: MIC, veterinary bacteria; assay type: cell-based; details: veterinary bacteria (Table 2), read-out: MIC
M. suipneumoniae TAM 6N = assay: MIC, anti-mycoplasmal, Friis broth solidified with 0.9% agarose; assay type: cell-based; details: Mesomycoplasma hyopneumoniae, TAM6N, 144 h, inoculum 10^3 to 10^5 C.F.U., 6 days incubation at 37°C, read-out: in vitro MIC
[2] = test system: Staph aureus 152 (pen sens); assay: MIC, veterinary bacteria; assay type: cell-based; details: Staphylococcus aureus, veterinary bacteria (Table 2), read-out: MIC
[3] = test system: M. bovigenitalium ATCC 14173; assay: MIC, anti-mycoplasmal, Friis broth solidified with 0.9% agarose; assay type: cell-based; details: 144 h, inoculum 10^3 to 10^5 C.F.U., 6 days incubation at 37°C, read-out: in vitro MIC
[4] = test system: M. suipneumoniae J2206/183b; assay: as above; assay type: cell-based; details: Mesomycoplasma hyopneumoniae, 144 h, inoculum 10^3 to 10^5 C.F.U., 6 days incubation at 37°C, read-out: in vitro MIC
Strep agalactiae SPA1 = assay: MIC, veterinary bacteria; assay type: cell-based; details: veterinary bacteria (Table 2), read-out: MIC
[5] = test system: Corynebacterium pyogenes CY1; assay: MIC, veterinary bacteria; assay type: cell-based; details: veterinary bacteria (Table 2), read-out: MIC
M. pneumoniae ATCC 15492 = assay: MIC, anti-mycoplasmal, Friis broth solidified with 0.9% agarose; assay type: cell-based; details: Mycoplasmoides pneumoniae, ATCC15492, 144 h, inoculum 10^3 to 10^5 C.F.U., 6 days incubation at 37°C, read-out: in vitro MIC
M. hyorhinis ATCC 23234 = assay: as above; assay type: cell-based; details: Mesomycoplasma hyorhinis, ATCC23234, 144 h, inoculum 10^3 to 10^5 C.F.U., 6 days incubation at 37°C, read-out: in vitro MIC
M. suipneumoniae MS 16 = assay: as above; assay type: cell-based; details: Mesomycoplasma hyopneumoniae, MS16, 144 h, inoculum 10^3 to 10^5 C.F.U., 6 days incubation at 37°C, read-out: in vitro MIC
[6] = test system: Staph aureus B4 (pen resis); assay: MIC, veterinary bacteria; assay type: cell-based; details: Staphylococcus aureus, veterinary bacteria (Table 2), read-out: MIC
[7] = test system: M. suipneumoniae ATCC 25095; assay: MIC, anti-mycoplasmal, Friis broth solidified with 0.9% agarose; assay type: cell-based; details: Mesomycoplasma hyopneumoniae, ATCC25095, 144 h, inoculum 10^3 to 10^5 C.F.U., 6 days incubation at 37°C, read-out: in vitro MIC
Past multocida PA2 = assay: MIC, veterinary bacteria; assay type: cell-based; details: veterinary bacteria (Table 2), read-out: MIC
[8] = Serum binding by ultrafiltration; assay type: in vitro ADME, pig; details: pig, serum, compounds at 8 mcg/ml, microbiological assay (B. subtilis ATCC 6633), read-out: % bound to pig serum (converted)
Experimental: Serum binding was assessed by ultrafiltration of procine serum containing compounds at 8 mcg/ml, and through an Amicon CF50A ultrafiltration cone. Separation of ultrafiltrate was achieved by centrifugation.

Past multocida PA1 = assay: MIC, veterinary bacteria; assay type: cell-based; details: veterinary bacteria (Table 2), read-out: MIC
[9] = test system: M. hyosynoviae ATCC 25591; assay: MIC, anti-mycoplasmal, Friis broth solidified with 0.9% agarose; assay type: cell-based; details: 144 h, inoculum 10^3 to 10^5 C.F.U., 6 days incubation at 37°C, read-out: in vitro MIC
M. hyorhinis ATCC 25021 = assay: as above; assay type: cell-based; details: Mesomycoplasma hyorhinis, ATCC25021, 144 h, inoculum 10^3 to 10^5 C.F.U., 6 days incubation at 37°C, read-out: in vitro MIC
M. suipneumoniae NB12 = assay: as above; assay type: cell-based; details: Mesomycoplasma hyopneumoniae, 144 h, inoculum 10^3 to 10^5 C.F.U., 6 days incubation at 37°C, read-out: in vitro MIC
Bord bronchisptica BO9 = assay: MIC, veterinary bacteria; assay type: cell-based; details: veterinary bacteria (Table 2), read-out: MIC
S typhimurium S18 = assay: MIC, veterinary bacteria; assay type: cell-based; details: veterinary bacteria (Table 2), read-out: MIC
M. suipneumoniae JF 435 = assay: MIC, anti-mycoplasmal, Friis broth solidified with 0.9% agarose; assay type: cell-based; details: Mesomycoplasma hyopneumoniae, JF435, 144 h, inoculum 10^3 to 10^5 C.F.U., 6 days incubation at 37°C, read-out: in vitro MIC
E coli NCTC 10418 = assay: MIC, veterinary bacteria; assay type: cell-based; details: veterinary bacteria (Table 2), read-out: MIC
M. suipneumoniae UCD 1 = assay: MIC, anti-mycoplasmal, Friis broth solidified with 0.9% agarose; assay type: cell-based; details: Mesomycoplasma hyopneumoniae, UCD1, 144 h, inoculum 10^3 to 10^5 C.F.U., 6 days incubation at 37°C, read-out: in vitro MIC
[10] = test system: M. suipneumoniae NCTC 10110; assay: as above; assay type: cell-based; details: Mesomycoplasma hyopneumoniae, NCTC10110, 144 h, inoculum 10^3 to 10^5 C.F.U., 6 days incubation at 37°C, read-out: in vitro MIC
E coli E1 = assay: MIC, veterinary bacteria; assay type: cell-based; details: veterinary bacteria (Table 2), read-out: MIC
Staph aureus Oxford = assay: MIC, veterinary bacteria; assay type: cell-based; details: Staphylococcus aureus, veterinary bacteria (Table 2), read-out: MIC
M. suipneumoniae LABER = assay: MIC, anti-mycoplasmal, Friis broth solidified with 0.9% agarose; assay type: cell-based; details: Mesomycoplasma hyopneumoniae, 144 h, inoculum 10^3 to 10^5 C.F.U., 6 days incubation at 37°C, read-out: in vitro MIC
Past Haemolytica PA5 = assay: MIC, veterinary bacteria; assay type: cell-based; details: veterinary bacteria (Table 2), read-out: MIC
Bord bronchiseptica BO8 = assay: MIC, veterinary bacteria; assay type: cell-based; details: veterinary bacteria (Table 2), read-out: MIC
[11] = test system: M. suipneumoniae PW/C/210; assay: MIC, anti-mycoplasmal, Friis broth solidified with 0.9% agarose; assay type: cell-based; details: Mesomycoplasma hyopneumoniae, 144 h, inoculum 10^3 to 10^5 C.F.U., 6 days incubation at 37°C, read-out: in vitro MIC
M. dispar NCTC 10125 = assay: as above; assay type: cell-based; details: 144 h, inoculum 10^3 to 10^5 C.F.U., 6 days incubation at 37°C, read-out: in vitro MIC
M. gallisepticum S6 = assay: as above; assay type: cell-based; details: Mycoplasmoides gallisepticum, 144 h, inoculum 10^3 to 10^5 C.F.U., 6 days incubation at 37°C, read-out: in vitro MIC
Strep uberis SPU1 = assay: MIC, veterinary bacteria; assay type: cell-based; details: veterinary bacteria (Table 2), read-out: MIC
S dublin S7 = assay: MIC, veterinary bacteria; assay type: cell-based; details: veterinary bacteria (Table 2), read-out: MIC
[12] = test system: Strep suis (group D) SPS11; assay: MIC, veterinary bacteria; assay type: cell-based; details: veterinary bacteria (Table 2), read-out: MIC

Row | SMILES | MIC (M. bovis NCTC 10131) [µg/mL] | MIC (M. suipneumoniae Str. 11) [µg/mL] | MIC (M. suipneumoniae HK(2)) [µg/mL] | MIC [1] [µg/mL] | MIC (Strep dysgalaciae SPD1) [µg/mL] | MIC (M. suipneumoniae TAM 6N) [µg/mL] | MIC [2] [µg/mL] | MIC [3] [µg/mL] | MIC [4] [µg/mL] | MIC (Strep agalactiae SPA1) [µg/mL] | MIC [5] [µg/mL] | MIC (M. pneumoniae ATCC 15492) [µg/mL] | MIC (M. hyorhinis ATCC 23234) [µg/mL] | MIC (M. suipneumoniae MS 16) [µg/mL] | MIC [6] [µg/mL] | MIC [7] [µg/mL] | MIC (Past multocida PA2) [µg/mL] | MIC (Past multocida PA1) [µg/mL] | MIC [9] [µg/mL] | MIC (M. hyorhinis ATCC 25021) [µg/mL] | other results
1 | CC(=O)Nc1ccc(C(=O)CCCOC(=O)C=C(C)CC2OCC(CC3OC3C(C)C(C)O)C(O)C2O)cc1 (centres unmarked) [Example 9, 4-(4-Acetamidophenyl)-4-oxobutyl monate A] | ≤ 0.01 | 0.25 (≈ 0.457 µM) | 0.5 (≈ 0.913 µM) | 20 (≈ 36.5 µM) | 0.156 (≈ 0.285 µM) | 0.5 (≈ 0.913 µM) | 0.625 (≈ 1.14 µM) | 0.05 (≈ 0.0913 µM) | 0.5 (≈ 0.913 µM) | 0.625 (≈ 1.14 µM) | > 80 | 0.5 (≈ 0.913 µM) | 0.25 (≈ 0.457 µM) | 0.25 (≈ 0.457 µM) | 1.25 (≈ 2.28 µM) | 0.5 (≈ 0.913 µM) | 0.625 (≈ 1.14 µM) | 2.5 (≈ 4.57 µM) | 0.1 (≈ 0.183 µM) | 0.25 (≈ 0.457 µM) | fraction unbound [8]: 0.138; MIC (M. suipneumoniae NB12): 0.5 µg/mL (≈ 0.913 µM); MIC (Bord bronchisptica BO9): 20 µg/mL (≈ 36.5 µM); MIC (S typhimurium S18): > 80 µg/mL; MIC (M. suipneumoniae JF 435): 0.5 µg/mL (≈ 0.913 µM); MIC (E coli NCTC 10418): > 80 µg/mL; MIC (M. suipneumoniae UCD 1): 0.5 µg/mL (≈ 0.913 µM); MIC [10]: 0.5 µg/mL (≈ 0.913 µM); MIC (E coli E1): > 80 µg/mL; MIC (Staph aureus Oxford): 0.625 µg/mL (≈ 1.14 µM); MIC (M. suipneumoniae LABER): 0.25 µg/mL (≈ 0.457 µM); MIC (Past Haemolytica PA5): 20 µg/mL (≈ 36.5 µM); MIC (Bord bronchiseptica BO8): > 80 µg/mL; MIC [11]: 0.25 µg/mL (≈ 0.457 µM); MIC (M. dispar NCTC 10125): 0.1 µg/mL (≈ 0.183 µM); MIC (M. gallisepticum S6): 2.5 µg/mL (≈ 4.57 µM); MIC (Strep uberis SPU1): 0.156 µg/mL (≈ 0.285 µM); MIC (S dublin S7): > 80 µg/mL; MIC [12]: 2.5 µg/mL (≈ 4.57 µM)
2 | CC(=CC(=O)OC1CCCC(=O)CCC1)CC1OCC(CC2OC2C(C)C(C)O)C(O)C1O (centres unmarked) [Example 10, Cyclooctan-5-onyl monate A] | 0.025 (≈ 0.0534 µM) | 1 (≈ 2.13 µM) | 2.5 (≈ 5.34 µM) | 80 (≈ 171 µM) | 5 (≈ 10.7 µM) | 2.5 (≈ 5.34 µM) | 2.5 (≈ 5.34 µM) | 0.05 (≈ 0.107 µM) | 2.5 (≈ 5.34 µM) | 10 (≈ 21.3 µM) | 80 (≈ 171 µM) | 10 (≈ 21.3 µM) | 1 (≈ 2.13 µM) | 1 (≈ 2.13 µM) | 2.5 (≈ 5.34 µM) | 1 (≈ 2.13 µM) | 1.25 (≈ 2.67 µM) | 40 (≈ 85.4 µM) | 0.25 (≈ 0.534 µM) | 1 (≈ 2.13 µM) | MIC (M. suipneumoniae NB12): 2.5 µg/mL (≈ 5.34 µM); MIC (Bord bronchisptica BO9): 80 µg/mL (≈ 171 µM); MIC (S typhimurium S18): > 80 µg/mL; MIC (M. suipneumoniae JF 435): 2.5 µg/mL (≈ 5.34 µM); MIC (E coli NCTC 10418): > 80 µg/mL; MIC (M. suipneumoniae UCD 1): 1 µg/mL (≈ 2.13 µM); MIC [10]: 1 µg/mL (≈ 2.13 µM); MIC (E coli E1): > 80 µg/mL; MIC (Staph aureus Oxford): 2.5 µg/mL (≈ 5.34 µM); MIC (M. suipneumoniae LABER): 1 µg/mL (≈ 2.13 µM); MIC (Past Haemolytica PA5): 40 µg/mL (≈ 85.4 µM); MIC (Bord bronchiseptica BO8): > 80 µg/mL; MIC [11]: 1 µg/mL (≈ 2.13 µM); MIC (M. dispar NCTC 10125): 0.5 µg/mL (≈ 1.07 µM); MIC (M. gallisepticum S6): > 10 µg/mL; MIC (Strep uberis SPU1): 1.25 µg/mL (≈ 2.67 µM); MIC (S dublin S7): > 80 µg/mL; MIC [12]: 80 µg/mL (≈ 171 µM)
